# Patent US10077238B2, “Small molecule LFA-1 inhibitors” (ALLOCYTE PHARMACEUTICALS AG, priority 2014, dated 2018)
# Values joined by “and” are separate entries in the source; they are usually repeats but may differ in a detail not shown here. Equal entries are not always repeated.
# What was measured:
# Type in all cases: cell-based
# LFA-1 [1] = target: T1, LFA-1 (Homo sapiens, UniProt P20701); experiment: V well cell adhesion assay, LFA-1-mediated Jurkat cell binding to ICAM-1 (LFA-1 adhesion); conditions: Jurkat cells on ICAM-1/Fc; mean ±SD of ≥3 independent experiments in triplicates or single experiments in triplicates
# T1 construct: endogenous in cells; host or cells: Jurkat cells
# T1 sequence (P20701 26-1170): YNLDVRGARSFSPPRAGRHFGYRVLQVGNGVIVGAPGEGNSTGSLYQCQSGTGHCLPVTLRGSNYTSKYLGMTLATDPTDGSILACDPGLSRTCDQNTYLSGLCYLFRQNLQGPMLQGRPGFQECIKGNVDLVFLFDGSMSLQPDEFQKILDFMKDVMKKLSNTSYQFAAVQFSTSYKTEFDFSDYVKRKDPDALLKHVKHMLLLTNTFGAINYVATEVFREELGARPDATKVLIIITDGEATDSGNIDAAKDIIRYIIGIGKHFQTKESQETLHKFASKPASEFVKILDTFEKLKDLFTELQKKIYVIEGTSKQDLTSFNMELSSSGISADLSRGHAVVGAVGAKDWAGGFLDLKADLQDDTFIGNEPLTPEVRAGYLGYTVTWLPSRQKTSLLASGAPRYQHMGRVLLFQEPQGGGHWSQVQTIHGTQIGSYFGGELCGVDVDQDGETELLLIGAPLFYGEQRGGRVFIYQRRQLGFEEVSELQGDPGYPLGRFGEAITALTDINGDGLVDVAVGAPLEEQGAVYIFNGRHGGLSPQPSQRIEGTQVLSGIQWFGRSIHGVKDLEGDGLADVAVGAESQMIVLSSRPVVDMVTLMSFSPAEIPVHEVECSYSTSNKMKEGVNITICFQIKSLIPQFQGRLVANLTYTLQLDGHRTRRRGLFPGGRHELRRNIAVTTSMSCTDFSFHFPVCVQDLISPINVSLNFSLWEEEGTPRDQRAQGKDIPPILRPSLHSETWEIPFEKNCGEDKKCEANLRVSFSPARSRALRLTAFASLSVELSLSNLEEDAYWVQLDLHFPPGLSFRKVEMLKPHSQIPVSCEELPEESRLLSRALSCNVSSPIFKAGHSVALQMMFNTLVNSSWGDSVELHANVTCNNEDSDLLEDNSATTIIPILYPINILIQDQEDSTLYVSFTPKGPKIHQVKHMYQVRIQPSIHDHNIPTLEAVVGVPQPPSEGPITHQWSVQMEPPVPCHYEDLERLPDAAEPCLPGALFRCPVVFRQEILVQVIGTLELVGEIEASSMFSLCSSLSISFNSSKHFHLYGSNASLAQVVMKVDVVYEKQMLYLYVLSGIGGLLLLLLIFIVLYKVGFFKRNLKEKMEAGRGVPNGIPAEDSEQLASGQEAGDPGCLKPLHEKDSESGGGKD
# T1 sequence (P05107 23-769 partner): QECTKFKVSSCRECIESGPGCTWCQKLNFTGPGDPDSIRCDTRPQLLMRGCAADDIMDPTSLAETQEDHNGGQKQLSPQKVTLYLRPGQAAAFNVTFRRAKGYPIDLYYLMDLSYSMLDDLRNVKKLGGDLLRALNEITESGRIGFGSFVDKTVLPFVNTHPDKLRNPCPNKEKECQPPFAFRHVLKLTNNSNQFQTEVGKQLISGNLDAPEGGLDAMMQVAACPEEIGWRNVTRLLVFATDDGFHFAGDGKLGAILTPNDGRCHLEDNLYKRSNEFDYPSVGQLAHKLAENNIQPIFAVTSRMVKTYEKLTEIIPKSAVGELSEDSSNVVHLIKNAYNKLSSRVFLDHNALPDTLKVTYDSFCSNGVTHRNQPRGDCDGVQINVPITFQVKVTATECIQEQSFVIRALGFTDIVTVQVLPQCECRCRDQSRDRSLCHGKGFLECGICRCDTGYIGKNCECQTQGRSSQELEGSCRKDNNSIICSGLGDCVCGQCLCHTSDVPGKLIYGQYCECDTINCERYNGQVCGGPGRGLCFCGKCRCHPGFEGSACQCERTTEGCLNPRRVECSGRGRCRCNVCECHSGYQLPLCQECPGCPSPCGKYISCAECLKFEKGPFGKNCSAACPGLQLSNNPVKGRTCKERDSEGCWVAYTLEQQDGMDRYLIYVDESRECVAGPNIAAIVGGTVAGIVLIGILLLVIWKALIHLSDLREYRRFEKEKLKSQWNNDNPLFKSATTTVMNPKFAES
# Procedure: Cell-Based Assay to Determine the Effect of the Compounds on LFA-1-Mediated Cell Adhesion (LFA-1 Adhesion)
# Purpose of the Assay: The V well cell adhesion assay measures the ability of the compounds to interfere with LFA-1-mediated binding to ICAM-1 at cellular level. The assay has been successfully used in the past to identify and characterize small molecules LFA-1 inhibitors.
# Experimental Protocol: The adhesion assay was performed in Vbottom 96-well plates as described previously [Weitz-Schmidt 2012]. Briefly, the plates were coated with anti-human IgG mAb diluted in coating buffer (20 mM Tris containing 150 mM NaCl, pH 8) (1 μg/mL) and incubated overnight at 4° C. The plates were flicked out and blocked with blocking buffer (50 mM Tris base, 150 mM NaCl, 1.5% BSA (w/v), pH 7.2) at 37° C. for 90 min. Then human recombinant ICAM-1/Fc (R&D Systems) diluted in coating buffer (0.3 μg/mL) was added to each well. The plates were incubated at 37° C. for 90 min and washed with binding buffer (50 mM Tris base, 150 mM NaCl, 1.5% BSA (w/v), 2 mM MgCl2, 2 mM MnCl2, 5 mM D-glucose monohydrate, pH 7.2-7.4) to remove unbound ligand.
# Jurkat cells were cultured under standard conditions as recommended by the American Type Culture collection (ATCC). The cells were fluorescently labelled with BCECF-AM in PBS (1 μg/mL) at 37° C. for 20 min in the dark, centrifuged and washed with PBS. The test compounds were dissolved in DMSO at 10 mM and serially pre-diluted in DMSO (100%) to avoid precipitation, before performing final dilution steps in binding buffer.
# The labelled Jurkat cells were re-suspended in binding buffer and test compounds or solvent control were added. The DMSO concentration was kept constant in all samples (1% DMSO as final assay concentration). After 40 min at 37° C. (LFA-1 activation and compound pre-incubation step) the cell suspension (3×10^5 cells/mL in binding buffer) was pipetted up and down and transferred to the ligand-coated microtiter V well plates (30 000 cells/well). The plates were centrifuged for 4 min at room temperature (rt) at 1000 rpm (Centrifuge Eppendorf 5810 R), setting the brake off Non-adherent cells that accumulated in the center of the Vbottom were quantified using a fluorescence reader with the filter sets allowing excitation at 485 nm and quantification of emission at 535 nm. The determination of the half maximal inhibitory concentration (IC50) of the compounds was calculated using the software GraphPad Prism 6.
# VLA-4 = target: T2, VLA-4 (Homo sapiens, UniProt P05556+P13612); experiment: V well cell adhesion assay, VLA-4-mediated Jurkat cell binding to VCAM-1 (VLA-4 adhesion); conditions: Jurkat cells on VCAM-1 Fc; single experiments run in triplicates
# T2 construct: endogenous in cells; host or cells: Jurkat cells
# T2 sequence (P13612 34-1032): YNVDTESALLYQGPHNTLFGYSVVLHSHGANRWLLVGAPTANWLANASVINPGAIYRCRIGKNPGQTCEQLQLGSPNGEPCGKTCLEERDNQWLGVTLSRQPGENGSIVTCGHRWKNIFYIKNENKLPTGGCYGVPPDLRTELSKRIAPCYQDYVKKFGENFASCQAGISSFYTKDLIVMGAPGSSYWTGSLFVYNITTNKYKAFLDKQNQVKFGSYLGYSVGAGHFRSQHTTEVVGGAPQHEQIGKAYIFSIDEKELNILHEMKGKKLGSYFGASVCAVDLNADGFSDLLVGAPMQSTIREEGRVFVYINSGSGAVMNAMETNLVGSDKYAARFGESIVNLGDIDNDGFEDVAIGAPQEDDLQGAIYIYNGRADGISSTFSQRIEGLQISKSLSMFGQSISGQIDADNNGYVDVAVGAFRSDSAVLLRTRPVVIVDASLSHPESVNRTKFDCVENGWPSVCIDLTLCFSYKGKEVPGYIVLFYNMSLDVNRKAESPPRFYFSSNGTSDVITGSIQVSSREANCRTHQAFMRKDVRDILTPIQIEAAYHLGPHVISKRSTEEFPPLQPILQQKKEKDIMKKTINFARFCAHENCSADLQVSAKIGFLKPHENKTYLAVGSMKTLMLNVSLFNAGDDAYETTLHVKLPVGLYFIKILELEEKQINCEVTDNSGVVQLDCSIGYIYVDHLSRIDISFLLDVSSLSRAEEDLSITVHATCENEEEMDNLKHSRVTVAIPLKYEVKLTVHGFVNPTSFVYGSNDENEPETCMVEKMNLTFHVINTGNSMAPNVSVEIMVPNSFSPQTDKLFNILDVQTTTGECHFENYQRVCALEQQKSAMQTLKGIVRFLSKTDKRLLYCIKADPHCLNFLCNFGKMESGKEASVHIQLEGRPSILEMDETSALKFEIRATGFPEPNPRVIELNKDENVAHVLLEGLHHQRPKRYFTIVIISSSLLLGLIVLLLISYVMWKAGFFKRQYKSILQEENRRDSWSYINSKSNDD
# T2 sequence (P05556 21-798): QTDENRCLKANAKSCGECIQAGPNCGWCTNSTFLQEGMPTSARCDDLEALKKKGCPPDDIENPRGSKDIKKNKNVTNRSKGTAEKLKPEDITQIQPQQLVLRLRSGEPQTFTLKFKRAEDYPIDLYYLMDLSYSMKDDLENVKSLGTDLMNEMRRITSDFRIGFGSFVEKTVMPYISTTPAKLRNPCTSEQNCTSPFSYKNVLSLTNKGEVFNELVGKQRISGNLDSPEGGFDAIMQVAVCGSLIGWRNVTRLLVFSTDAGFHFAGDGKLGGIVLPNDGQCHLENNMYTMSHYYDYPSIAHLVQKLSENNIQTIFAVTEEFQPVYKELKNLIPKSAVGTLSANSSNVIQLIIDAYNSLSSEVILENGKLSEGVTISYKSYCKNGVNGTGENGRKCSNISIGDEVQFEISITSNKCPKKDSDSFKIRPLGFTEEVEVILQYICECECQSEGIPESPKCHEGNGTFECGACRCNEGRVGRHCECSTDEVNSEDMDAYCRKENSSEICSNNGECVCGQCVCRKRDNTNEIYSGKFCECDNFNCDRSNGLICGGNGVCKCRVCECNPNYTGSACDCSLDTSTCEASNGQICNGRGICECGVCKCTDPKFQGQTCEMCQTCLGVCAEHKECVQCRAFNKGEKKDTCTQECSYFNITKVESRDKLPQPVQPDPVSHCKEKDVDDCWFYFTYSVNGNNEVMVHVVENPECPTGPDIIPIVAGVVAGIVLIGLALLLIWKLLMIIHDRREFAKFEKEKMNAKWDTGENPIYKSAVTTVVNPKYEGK
# Procedure: Cell-Based Assay to Determine the Selectivity of the Compounds Over the Integrin VLA-4 (VLA-4 Adhesion)
# Purpose of the Assay: This V well cell adhesion assay measures the effect of the compounds on VLA-4-mediated Jurkat cell binding to VCAM-1. The assay has been successfully used in the past to determine the selectivity of small molecule LFA-1 inhibitors over the integrin VLA-4.
# Experimental Protocol: The adhesion assay was performed as described above for the Jurkat/ICAM-1 V well adhesion assay. Briefly, plates were coated with anti-human IgG mAb and blocked with BSA as described above. Instead of ICAM-1, recombinant human VCAM-1/CD106 Fc chimera (R&D Systems) was coated onto the plates (0.3 μg/mL in coating buffer). After incubation, labelled Jurkat cells in binding buffer were transferred to the wells (20,000 cells/well). The plates were immediately centrifuged at 1000 rpm for 4 min at rt (Centrifuge Eppendorf 5810 R) setting the brakeoff. Non-adherent cells were quantified in the tip of the Vbottom well using a fluorescence reader. IC50 values of the compounds were calculated using the software GraphPad Prism 6.
# LFA-1 [2] = target: T1, LFA-1; experiment: Flow cytometry, mAb R7.1 binding to LFA-1 expressed on leukocytes; conditions: Jurkat cells or human PBMCs, values of independent experiments; for inhibition at 1 µM: Jurkat
# Procedure: Measurement of mAb R7.1 binding to LFA-1 (mAb R7.1 binding)
# Purpose of the Assay: This flow cytometry assay determines the effect of the compounds on the binding of the anti-LFA-1 mAb R7.1 to LFA-1 expressed on leukocytes.
# Experimental Protocol: Jurkat cells or human peripheral blood mononuclear cells (PBMCs) were resuspended in assay buffer (50 mM Tris, 150 mM NaCl, 2 mM MgCl2, 1.5% BSA and 5 mM D-glucose monohydrate, pH7.2) at 2×10^6 cells/mL and 500 μL of this cell suspension (1×10^6 cells) were transferred into polypropylene tubes containing the test compounds diluted in 500 μL assay buffer. The samples were pre-incubated at 37° C. for 40 min, and centrifuged. The supernatants were removed and FITC-labelled anti-LFA-1 mAb R7.1 and PE-labeled anti-LFA-1 mAb TS2/4 (mAb TS2/4 is not affected by alpha I allosteric inhibitor binding to LFA-1) or appropriate isotype controls were added directly to each cell pellet. The pellets were then gently pipetted up and down and incubated on ice for 30 min in the dark. After the incubation step the cells were washed twice with PBS and resuspended in PBS.
# Antibody binding was analyzed by flow cytometry. Mean fluorescence intensities (MFI) were calculated using the CellQuest software. The values are expressed as % of solvent control (solvent control=100% binding).
IC50 (LFA-1 [1]),IC50 (VLA-4),inhibition at 1 µM (LFA-1 [2]),mAb R7.1 binding % inhibition at 1 μM (LFA-1 [2]),Structure (SMILES)
0.045 ± 0.014 µM,> 10 µM,,,"C[C@]12C(=O)N(c3cc(Cl)cc(Cl)c3)C(=O)[C@H]1C2(c1ccc(C#N)cc1)c1ccc(C#N)cc1 (racemic) [4v (racemate), rac-4-[(1S,5S)-6-(4-Cyanophenyl)-3-(3,5-dichlorophenyl)-1-methyl-2,4-dioxo-3-azabicyclo[3.1.0]hexan-6-yl]benzonitrile]"
1.54 ± 0.646 µM,,80.5%,,"C[C@]12C(=O)N(c3cc(Cl)cc(Cl)c3)C(=O)[C@H]1[C@H]2c1ccccc1 (racemic) [4′d (racemate), rac-(1R,5S,6S)-3-(3,5-Dichlorophenyl)-1-methyl-6-phenyl-3-azabicyclo[3.1.0]hexane-2,4-dione]"
> 1 µM,,,45.7%,"O=C1C2C(C(=O)N1c1cc(Cl)cc(Cl)c1)C2(c1ccncc1)c1ccc(OC(F)(F)F)cc1 (single isomer, unassigned) [4w or 4′w diastereomer II]"
0.215 ± 0.134 µM,> 10 µM,,95.7%,"O=C1C2C(C(=O)N1c1cc(Cl)cc(Cl)c1)C2(c1ccncc1)c1ccc(OC(F)(F)F)cc1 (single isomer, unassigned) [4w or 4′w diastereomer I]"
0.202 µM and 0.286 µM,> 10 µM,,98.4%,"CC12C(=O)N(c3cc(Cl)cc(Cl)c3)C(=O)C1C2(c1ccncc1)c1ccc(OC(F)(F)F)cc1 (single isomer, unassigned) [4x or 4′x diastereomer I (racemate), rac-(1 S, 5S, 6R)- and rac-(1 S, 5S, 6S)-3-(3,5-Dichlorophenyl)-1-methyl-6-(pyridin-4-yl)-6-[4-(trifluoromethoxy)phenyl]-3-azabicyclo[3.1.0]hexane-2,4-dione]"
> 1 µM,,,76.9%,"CC12C(=O)N(c3cc(Cl)cc(Cl)c3)C(=O)C1C2(c1ccncc1)c1ccc(OC(F)(F)F)cc1 (single isomer, unassigned) [4x or 4′x diastereomer II (racemate), rac-(1 S, 5S, 6R)- and rac-(1 S, 5S, 6S)-3-(3,5-Dichlorophenyl)-1-methyl-6-(pyridin-4-yl)-6-[4-(trifluoromethoxy)phenyl]-3-azabicyclo[3.1.0]hexane-2,4-dione]"
> 1 µM,,74.3%,,"O=C1[C@@H]2[C@H](C(=O)N1c1cc(Cl)cc(Cl)c1)C2(c1ccc(OC(F)(F)F)cc1)c1ccc(OC(F)(F)F)cc1 [Compound 4p, 3-(3,5-Dichlorophenyl)-6,6-bis[4-(trifluoromethoxy)phenyl]-3-azabicyclo[3.1.0.]hexane-2,4-dione]"
> 1 µM,,87.1%,,"N#Cc1ccc(C2(c3ccc(C#N)cc3)[C@@H]3C(=O)N(c4cc(Cl)cc(Cl)c4)C(=O)[C@@H]32)cc1 [Compound 4u, 4-[6-(4-Cyanophenyl)-3-(3,5-dichlorophenyl)-2,4-dioxo-3-azabicyclo[3.1.0]hexan-6-yl]benzonitrile]"
